According to US12319655B2, “RAF kinase inhibitors and methods of use thereof” (Deciphera Pharmaceuticals, LLC, priority 2021, dated 2025):

What follows are compounds tested on H2405 cells (assay: H2405 Cell Proliferation Assay (2)). Details: Homo sapiens, NCI-H2405.
Format: cell-based
Procedure: H2405 Cell Proliferation Assay (2)
H2405 cells (catalog #CRL-5994) are obtained from the American Type Culture Collect (ATTC, Manassas, VA). Briefly, cells were grown in RPMI 1640 supplemented with 5% characterized fetal bovine serum (Invitrogen, Carlsbad, CA) and 1% Penicillin/Streptomycin/L-Glutamine at 37° C., 5% CO2, and 95% humidity. Cells are expanded until reaching 70-95% confluency at which point they are sub-cultured or harvested for assay use. A serial dilution of test compound is dispensed into a 384-well black clear bottom plate in triplicate. Seven hundred fifty cells are added per well in 50 μL complete growth medium in the 384-well plate. Plates are incubated for 67-72 h at 37° C., 5% CO2, and 95% humidity. At the end of the incubation, 10 μL of a 440 μM solution of resazurin (Sigma, St. Louis, MO) in PBS is added to each well of the plate and plates are incubated for an additional 5-6 h at 37° C., 5% CO2, and 95% humidity. Plates are read on a Synergy2 or equivalent reader (Biotek, Winooski VT) using an excitation of 540 nm and an emission of 600 nm. Data is analyzed using Prism software (GraphPad, San Diego, CA) to calculate IC50 values

Row | IC50 [nM] | SMILES
1 | ≤ 100 | CNC(=O)c1cc(-c2cc(-c3cc(NC(=O)c4ccnc(C(C)(C)F)c4)cc(F)c3F)ccn2)ccn1 [Example 478]
2 | 100 to 500 | CNC(=O)c1cc(-c2cc(-c3cc(NC(=O)c4ccnc(C(C)(C)F)c4)ccc3C)c(F)cn2)ccn1 [Example 469]
3 | 100 to 500 | CNC(=O)c1cc(-c2cc(-c3cc(NC(=O)c4ccnc(C(C)C)c4)cnc3C)ccn2)ccn1 [Example 465]
4 | ≤ 100 | Cc1ccc(NC(=O)c2ccnc(C(C)C)c2)cc1-c1ccnc(-c2ccnc(NC(=O)C3CC3)c2)c1 [Example 467]
5 | ≤ 100 | CNC(=O)c1cc(-c2cncc(-c3cc(NC(=O)c4ccnc(C(C)C)c4)ccc3C)c2)ccn1 [Example 445]
6 | ≤ 100 | Cc1ccc(NC(=O)c2ccnc(C3(C#N)CC3)c2)cc1-c1ccnc(-c2ccnc(NC(=O)C3CC3)c2)c1 [Example 457]
7 | ≤ 100 | Cc1ccc(NC(=O)c2ccnc(C(C)(F)F)c2)cc1-c1ccnc(-c2ccnc(NC(=O)C3CC3)c2)c1 [Example 459]
8 | ≤ 100 | CNC(=O)c1cc(-c2cc(-c3cc(NC(=O)c4ccnc(C(C)(F)F)c4)ccc3C)ccn2)ccn1 [Example 441]
9 | ≤ 100 | CNC(=O)c1cc(-c2cncc(-c3cc(NC(=O)c4ccnc(C(C)(C)C#N)c4)ccc3C)c2)ccn1 [Example 442]
10 | 1000 to 10000 | CNC(=O)c1cc(-c2cc(-c3cc(NC(=O)c4ccnc(C(C)(C)F)c4)ccc3C(F)(F)F)ccn2)ccn1 [Example 471]
11 | ≤ 100 | Cc1ccc(NC(=O)c2ccnc(C(C)(C)C#N)c2)cc1-c1ccnc(-c2ccnc(NC(=O)C3CC3)c2)c1 [Example 456]
12 | 100 to 500 | CNC(=O)c1cc(-c2cc(-c3cc(NC(=O)c4ccnc(C5CC5)c4)ccc3C)ccn2)ccn1 [Example 460]
13 | 100 to 500 | Cc1ccc(NC(=O)c2ccnc(C(C)(C)F)c2)cc1-c1ccnc(-c2ccnc(C(=O)NCCN(C)C)c2)c1 [Example 453]
14 | ≤ 100 | Cc1ncc(NC(=O)c2ccnc(C(C)C)c2)cc1-c1ccnc(-c2ccnc(NC(=O)C3CC3)c2)c1 [Example 468]
15 | 100 to 500 | CNC(=O)c1cc(-c2cc(-c3cc(NC(=O)c4ccnc(C(C)(C)F)c4)c(F)cc3F)ccn2)ccn1 [Example 482]
16 | ≤ 100 | Cc1ncc(NC(=O)c2ccnc(C(C)(C)F)c2)cc1-c1ccnc(-c2ccnc(NC(=O)C3CC3)c2)c1 [Example 454]
17 | 100 to 500 | CNC(=O)c1cc(-c2cncc(-c3cc(NC(=O)c4ccnc(C(C)(F)F)c4)ccc3C)c2)ncn1 [Example 439]
18 | ≤ 100 | Cc1ccc(NC(=O)c2ccnc(C(C)(C)F)c2)cc1-c1ccnc(-c2ccnc(C(N)=O)c2)c1 [Example 476]
19 | 1000 to 10000 | CNC(=O)c1cc(-c2cc(-c3cc(NC(=O)c4ccnc(C(C)(C)F)c4)ccn3)ccn2)ccn1 [Example 481]
20 | 1000 to 10000 | CNC(=O)c1cc(-c2cc(-c3cc(NC(=O)c4cnnc(C(F)(F)F)c4)ccc3C)ccn2)ccn1 [Example 477]
21 | 100 to 500 | Cc1cc(-c2cc(NC(=O)c3ccnc(C(C)(C)F)c3)ccc2C)cc(-c2ccnc(C(N)=O)c2)n1 [Example 484]
22 | 100 to 500 | CNC(=O)c1cc(-c2cc(-c3cc(NC(=O)c4ccnc(C(C)(C)F)c4)ccc3C)c(C)cn2)ccn1 [Example 472]
23 | ≤ 100 | Cc1ccc(NC(=O)c2ccnc(C3CC3)c2)cc1-c1ccnc(-c2ccnc(NC(=O)C3CC3)c2)c1 [Example 458]
24 | ≤ 100 | Cc1ncc(NC(=O)c2ccnc(C3(C#N)CC3)c2)cc1-c1ccnc(-c2ccnc(NC(=O)C3CC3)c2)c1 [Example 461]
25 | 100 to 500 | Cc1ccc(NC(=O)c2ccnc(C(C)(C)F)c2)cc1-c1ccnc(-c2ccnc(C(=O)NCCO)c2)c1 [Example 448]
26 | ≤ 100 | CNC(=O)c1cc(-c2cc(-c3cc(NC(=O)c4ccnc(C(C)(C)F)c4)ccc3C)cc(OCCO)n2)ccn1 [Example 449]
27 | 100 to 500 | CNC(=O)c1cc(-c2cncc(-c3cc(NC(=O)c4ccnc(C(C)(F)F)c4)ccc3C)c2)ccn1 [Example 440]
28 | 1000 to 10000 | Cc1cc(-c2cc(NC(=O)c3ccnc(C(C)(C)F)c3)ccc2C)cc(-c2ccnc(C#N)c2)n1 [Example 483]
29 | ≤ 100 | CNC(=O)c1cc(-c2cc(-c3cc(NC(=O)c4ccnc(C(C)C)c4)ccc3C)ccn2)ccn1 [Example 443]
